Reference: publication PMC10641818, “Development of First-in-Class Dual Sirt2/HDAC6 Inhibitors as Molecular Tools for Dual Inhibition of Tubulin Deacetylation” (Journal of Medicinal Chemistry, 2023)
One block for each compound: values may come before it.

Experiments:
Sirt2 (demyristoylation) = biological target: T1, Sirt2 (demyristoylation) (Homo sapiens, UniProt Q8IXJ6); experiment: Discontinuous Sirt2 demyristoylation assay (ZMML substrate); format: biochemical; details: for IC50: mean ± SD
T1 construct: the respective sirtuin (Sirt1_134–747, Sirt2_56–356, or Sirt3_118–395) was mixed with; made in house; host or cells: Escherichia coli BL21 Star (DE3)
T1 sequence (Q8IXJ6 56-356): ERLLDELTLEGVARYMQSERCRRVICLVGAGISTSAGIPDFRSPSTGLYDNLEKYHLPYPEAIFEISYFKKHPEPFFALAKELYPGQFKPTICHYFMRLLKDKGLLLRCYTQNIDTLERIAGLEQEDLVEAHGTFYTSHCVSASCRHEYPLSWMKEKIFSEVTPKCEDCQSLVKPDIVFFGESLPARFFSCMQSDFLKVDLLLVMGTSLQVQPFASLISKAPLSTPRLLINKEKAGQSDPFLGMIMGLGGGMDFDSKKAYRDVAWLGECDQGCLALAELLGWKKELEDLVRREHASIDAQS

HDAC1 = biological target: T2, HDAC1 (Homo sapiens, UniProt Q13547); experiment: HDAC1 in vitro deacetylation assay (ZMAL); format: biochemical; details: deacetylation, mean ± SD
T2 construct: purchased BPS Bioscience 50051
T2 sequence (Q13547 whole entry): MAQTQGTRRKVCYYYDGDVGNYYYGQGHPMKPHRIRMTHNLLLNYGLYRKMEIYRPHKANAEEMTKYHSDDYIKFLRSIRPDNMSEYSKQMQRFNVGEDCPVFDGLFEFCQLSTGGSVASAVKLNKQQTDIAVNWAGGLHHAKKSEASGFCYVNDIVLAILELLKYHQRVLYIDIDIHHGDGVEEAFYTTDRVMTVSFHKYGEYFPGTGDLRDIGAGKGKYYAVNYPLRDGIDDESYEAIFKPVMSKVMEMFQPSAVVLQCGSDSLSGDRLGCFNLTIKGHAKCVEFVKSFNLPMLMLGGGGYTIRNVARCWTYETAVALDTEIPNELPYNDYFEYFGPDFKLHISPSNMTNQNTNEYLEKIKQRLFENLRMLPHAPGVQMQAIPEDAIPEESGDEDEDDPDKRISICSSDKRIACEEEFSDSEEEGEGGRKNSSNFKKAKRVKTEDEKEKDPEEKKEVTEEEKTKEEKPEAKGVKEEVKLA

[1] = system: HGC27 gastric carcinoma cells; experiment: Cell viability assay (MTS) HGC27; format: cell-based; details: 72 h; for HGC27 cellular effect: @ 50 μM
Procedure: (§1) Cell viability assays of HGC27 and PC-3M-luc cells were performed by using the Celltiter 96 Aqueous Nonradioactive Proliferation Assay (Promega). Cells were seeded in sterile 96-well plates at a density of 2000 cells per well and incubated overnight at 37 °C and 5% CO2. Compound or vehicle were added to a final concentration of 0.5% DMSO. […] Cells were seeded at densities of 10^4 cells/well for W1 cells or 2 × 10^3 cells/well for MCF-7 cells. Tests were performed in 96-well plates (Sarstedt AG, Nümbrecht, Germany). After incubation overnight, cells were supplemented with half logarithmic dilution series of the indicated compounds and DPBS (PAN Biotech GmbH, Aidenbach, Germany) as control. Then 72 h after addition of cytostatic treatment, the MTT solution (20 μL, 5 mg/mL) was added into the wells for 1 h at 37 °C and 5% CO2 until formazan crystals were formed. The supernatant was removed, and the cells were dissolved in 200 μL of DMSO. Absorption was analyzed at 570 nm, with background subtraction at 690 nm, using a plate reader (Thermomultiscan EX, Thermo, Schwerte, Germany). Cell viability was then determined by nonlinear regression and a four-parameter logistic equation with variable hill slope. […] The significance of the difference of the effects of 33 and 4 + 57 was determined by using an unpaired, two-tailed t test with Welch’s correction, implemented in GraphPad Prism 8.4.0 (GraphPad, USA). Statistical significance was accepted if p < 0.05. Asterisks indicate *p < 0.05, **p < 0.01.

HDAC6 = biological target: T3, HDAC6 (Homo sapiens, UniProt Q9UBN7); experiment: HDAC6 in vitro deacetylation assay (ZMAL); format: biochemical; parameters: purchased BPS Bioscience 50006; details: deacetylation, mean ± SD
T3 sequence (Q9UBN7 1-1215): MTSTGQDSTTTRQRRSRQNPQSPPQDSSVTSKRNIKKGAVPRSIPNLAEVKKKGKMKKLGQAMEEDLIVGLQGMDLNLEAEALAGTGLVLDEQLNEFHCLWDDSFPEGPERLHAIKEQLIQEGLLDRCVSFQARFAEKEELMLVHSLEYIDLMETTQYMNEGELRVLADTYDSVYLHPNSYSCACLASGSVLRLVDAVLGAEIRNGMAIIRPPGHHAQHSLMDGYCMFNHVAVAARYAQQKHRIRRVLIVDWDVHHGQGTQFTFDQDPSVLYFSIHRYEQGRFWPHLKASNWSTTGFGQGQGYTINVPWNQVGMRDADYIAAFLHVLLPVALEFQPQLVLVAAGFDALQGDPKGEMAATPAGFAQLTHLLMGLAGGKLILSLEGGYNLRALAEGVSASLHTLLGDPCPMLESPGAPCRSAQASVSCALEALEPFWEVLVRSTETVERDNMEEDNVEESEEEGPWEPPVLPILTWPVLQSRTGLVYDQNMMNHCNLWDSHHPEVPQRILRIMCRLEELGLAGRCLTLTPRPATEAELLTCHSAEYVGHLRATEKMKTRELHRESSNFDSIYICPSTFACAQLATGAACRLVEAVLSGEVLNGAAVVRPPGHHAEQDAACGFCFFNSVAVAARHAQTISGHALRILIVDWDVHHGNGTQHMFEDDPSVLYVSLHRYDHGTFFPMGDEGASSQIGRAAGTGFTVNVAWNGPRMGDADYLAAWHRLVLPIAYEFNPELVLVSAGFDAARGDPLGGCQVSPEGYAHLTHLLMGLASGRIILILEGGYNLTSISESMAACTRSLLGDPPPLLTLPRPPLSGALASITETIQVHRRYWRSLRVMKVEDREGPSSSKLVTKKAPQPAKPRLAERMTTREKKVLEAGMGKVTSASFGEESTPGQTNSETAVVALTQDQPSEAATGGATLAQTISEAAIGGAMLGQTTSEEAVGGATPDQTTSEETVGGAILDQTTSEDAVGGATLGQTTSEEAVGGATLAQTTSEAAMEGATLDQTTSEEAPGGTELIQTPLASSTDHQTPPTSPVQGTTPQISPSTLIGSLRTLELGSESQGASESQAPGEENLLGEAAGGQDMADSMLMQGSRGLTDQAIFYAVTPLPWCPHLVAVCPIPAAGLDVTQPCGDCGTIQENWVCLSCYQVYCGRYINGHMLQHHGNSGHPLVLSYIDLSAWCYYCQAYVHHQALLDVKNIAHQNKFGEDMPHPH

Sirt3 = biological target: T4, Sirt3 (Homo sapiens, UniProt Q9NTG7); experiment: Sirt3 in vitro deacetylation assay (ZMAL); format: biochemical
T4 construct: the respective sirtuin (Sirt1_134–747, Sirt2_56–356, or Sirt3_118–395) was mixed with; made in house; host or cells: Escherichia coli BL21 Star (DE3)
T4 sequence (Q9NTG7 118-395): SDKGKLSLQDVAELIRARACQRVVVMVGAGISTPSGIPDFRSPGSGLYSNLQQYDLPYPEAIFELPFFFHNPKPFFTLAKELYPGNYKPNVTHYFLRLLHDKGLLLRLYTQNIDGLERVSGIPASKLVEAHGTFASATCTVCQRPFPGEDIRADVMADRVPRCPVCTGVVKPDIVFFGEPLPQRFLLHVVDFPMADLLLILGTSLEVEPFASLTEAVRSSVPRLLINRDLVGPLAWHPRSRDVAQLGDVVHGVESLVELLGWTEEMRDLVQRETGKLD

W1 ovarian cancer cells = experiment: Cell viability assay (MTT) W1; format: cell-based; details: 72 h; for W1 cellular effect: @ 50 μM
Procedure: as §1

[2] = system: PC-3M-luc prostate cancer cells; experiment: Cell viability assay (MTS) PC-3M-luc; format: cell-based; details: 72 h; for PC-3M-luc cellular effect: @ 50 μM
Procedure: as §1

Sirt1 = biological target: T5, Sirt1 (Homo sapiens, UniProt Q96EB6); experiment: Sirt1 in vitro deacetylation assay (ZMAL); format: biochemical
T5 construct: the respective sirtuin (Sirt1_134–747, Sirt2_56–356, or Sirt3_118–395) was mixed with; made in house; host or cells: Escherichia coli BL21 Star (DE3)
T5 sequence (Q96EB6 134-747): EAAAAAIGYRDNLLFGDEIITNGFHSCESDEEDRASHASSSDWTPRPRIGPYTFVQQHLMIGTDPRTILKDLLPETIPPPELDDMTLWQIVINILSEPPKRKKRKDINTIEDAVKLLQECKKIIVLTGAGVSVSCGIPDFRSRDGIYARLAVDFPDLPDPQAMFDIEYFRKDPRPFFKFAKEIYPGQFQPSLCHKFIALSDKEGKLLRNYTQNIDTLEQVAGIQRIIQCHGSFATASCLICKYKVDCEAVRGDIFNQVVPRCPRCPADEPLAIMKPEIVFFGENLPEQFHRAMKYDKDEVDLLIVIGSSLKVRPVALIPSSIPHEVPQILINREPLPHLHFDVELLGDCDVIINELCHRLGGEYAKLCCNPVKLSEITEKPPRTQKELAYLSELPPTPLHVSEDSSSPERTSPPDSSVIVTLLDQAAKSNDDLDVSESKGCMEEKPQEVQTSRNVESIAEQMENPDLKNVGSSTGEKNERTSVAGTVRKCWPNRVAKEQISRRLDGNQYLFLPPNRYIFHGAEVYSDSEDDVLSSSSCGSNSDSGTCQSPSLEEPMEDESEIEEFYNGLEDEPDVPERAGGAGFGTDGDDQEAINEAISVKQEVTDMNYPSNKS

Sirt2 [3] = biological target: T6, Sirt2 (Homo sapiens, UniProt Q8IXJ6); experiment: Sirt2 in vitro deacetylation assay (ZMAL, trypsin-based fluorescence); format: biochemical; details: for IC50: deacetylation, mean ± SD
T6 construct: the respective sirtuin (Sirt1_134–747, Sirt2_56–356, or Sirt3_118–395) was mixed with; made in house; host or cells: Escherichia coli BL21 Star (DE3)
T6 sequence (Q8IXJ6 56-356): T1 sequence (Q8IXJ6 56-356)

[4] = system: MCF-7 breast cancer cells; experiment: Cell viability assay (MTT) MCF-7; format: cell-based; details: 72 h; for MCF-7 cellular effect: @ 50 μM
Procedure: as §1

Sirt2 [5] = biological target: T7, Sirt2 (Homo sapiens, UniProt Q8IXJ6); experiment: Cell-based NanoBRET assay for Sirt2 target engagement in HEK293T cells; details: tracer SirReal-TAMRA 2 μM
T7 construct: expressed in transfected cells; host or cells: HEK293T
T7 sequence (Q8IXJ6 1-389): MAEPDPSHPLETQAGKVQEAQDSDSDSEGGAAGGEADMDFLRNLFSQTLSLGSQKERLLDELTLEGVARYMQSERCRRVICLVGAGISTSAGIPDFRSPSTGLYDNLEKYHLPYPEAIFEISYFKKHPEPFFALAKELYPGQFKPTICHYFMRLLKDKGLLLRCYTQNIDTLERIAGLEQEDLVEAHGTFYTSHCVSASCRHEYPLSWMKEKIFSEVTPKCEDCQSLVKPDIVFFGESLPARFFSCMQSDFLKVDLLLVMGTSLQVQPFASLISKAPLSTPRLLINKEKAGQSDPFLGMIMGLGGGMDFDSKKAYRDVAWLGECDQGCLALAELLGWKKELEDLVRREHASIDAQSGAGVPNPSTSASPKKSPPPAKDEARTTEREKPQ

SMILES: CC(=O)NCc1ccc(C(=O)NO)cc1 [Compound 55, 4-(Acetamidomethyl)-N-hydroxybenzamide]
inhibition at 20 µM (Sirt2 (demyristoylation)): < 15% | IC50 (HDAC1): 17000 ± 1000 nM | IC50 (HDAC6): 650 ± 40 nM

SMILES: O=C(NO)c1ccc(CNC(=O)c2ccccc2)cc1 [Compound 56, 4-(Benzamidomethyl)-N-hydroxybenzamide]
inhibition at 20 µM (Sirt2 (demyristoylation)): < 15% | IC50 (HDAC1): 810 ± 50 nM | IC50 (HDAC6): 18 ± 1 nM

SMILES: O=C(CCCCCCC(=O)Nc1ccccc1)NO [SAHA, suberoylanilide hydroxamic acid, reference compound]
Sirt2 (demyristoylation) percentual inhibition (Sirt2 (demyristoylation); @ 10 μM): 18% @ 10 μM

Second part, led by results:

IC50 (Sirt2 (demyristoylation)): 34000 ± 2000 nM | IC50 (HDAC1): 600 ± 30 nM | IC50 (HDAC6): 9.6 ± 0.3 nM | inhibition at 20 µM (Sirt3): < 15% | inhibition at 20 µM (Sirt1): < 15% | IC50 (Sirt2 [3]): 480 ± 40 nM
SMILES: Cc1cc(C)nc(SCC(=O)Nc2ncc(Cc3cccc(OCc4cn(CCOCCOCCOCCOCCC(=O)Nc5ccc(C(=O)NCc6ccc(C(=O)NO)cc6)cc5)nn4)c3)s2)n1 [Compound 44, 4-((4-(1-(4-((3-((2-(2-((4,6-Dimethylpyrimidin-2-yl)thio)acetamido)thiazol-5-yl)methyl)phenoxy)methyl)-1H-1,2,3-triazol-1-yl)-3,6,9,12-tetraoxapentadecan-15-amido)benzamido)methyl)-N-hydroxybenzamide]
HGC27 cellular effect [1]: ni ^b (ni = no inhibition (cellular effect <20% @ 50 μM)) | W1 cellular effect (W1 ovarian cancer cells): ni ^b (ni = no inhibition (cellular effect <20% @ 50 μM)) | PC-3M-luc cellular effect [2]: ni ^b (ni = no inhibition (cellular effect <20% @ 50 μM)) | MCF-7 cellular effect [4]: ni ^b (ni = no inhibition (cellular effect <20% @ 50 μM))

inhibition at 20 µM (Sirt2 (demyristoylation)): < 15%
SMILES: Cc1cc(C)nc(SCC(=O)Nc2ncc(Cc3cccc(C(=O)NO)c3)s2)n1 [Compound 21, 3-((2-(2-((4,6-Dimethylpyrimidin-2-yl)thio)acetamido)thiazol-5-yl)methyl)-N-hydroxybenzamide]

inhibition at 5 µM (Sirt2 (demyristoylation); @ 5 μM, read-out: Sirt2 (demyristoylation) percentual inhibition): < 15% | EC50 ([1]; Homo sapiens, HGC-27, MTS, mean ± SD): 21100 ± 1600 nM | Cellular Sirt2 binding (NanoBRET) (Sirt2 [5]): no Sirt2 binding | EC50 (W1 ovarian cancer cells; MTT, mean ± SD): 33600 ± 4100 nM | EC50 ([2]; PC-3M-luc, read-out: PC-3M-luc cell viability EC50, MTS, mean ± SD): 30100 ± 2300 nM | inhibition at 20 µM (Sirt2 [3]; @ 20 μM): < 15% | Sirt2 inhibition (Sirt2 [3]; supplementary CSV, column IC50 Sirt2 [µM]): n.i. | EC50 ([4]; Homo sapiens, MCF7, MTT, mean ± SD): 16300 ± 5900 nM
SMILES: CCCCC(=O)N(CCCC)Cc1ccc(C(=O)NO)cc1 [Compound 57, 4-((N-Butylpentanamido)methyl)-N-hydroxybenzamide]

IC50 (Sirt2 (demyristoylation)): 2800 ± 600 nM | IC50 (HDAC1): 460 ± 50 nM | IC50 (HDAC6): 17 ± 1 nM | inhibition at 20 µM (Sirt3): < 15% | inhibition at 20 µM (Sirt1): < 15% | IC50 (Sirt2 [3]): 540 ± 10 nM
SMILES: Cc1cc(C)nc(SCC(=O)Nc2ncc(Cc3cccc(OCc4cn(CCOCCOCCOCCOCCOCCOCCOCCOCCOCCOCCC(=O)Nc5ccc(C(=O)NCc6ccc(C(=O)NO)cc6)cc5)nn4)c3)s2)n1 [Compound 45, 4-((4-(1-(4-((3-((2-(2-((4,6-Dimethylpyrimidin-2-yl)thio)acetamido)thiazol-5-yl)methyl)phenoxy)methyl)-1H-1,2,3-triazol-1-yl)-3,6,9,12,15,18,21,24,27,30-decaoxatritriacontan-33-amido)benzamido)methyl)-N-hydroxybenzamide]
HGC27 cellular effect [1]: ni ^b (ni = no inhibition (cellular effect <20% @ 50 μM)) | W1 cellular effect (W1 ovarian cancer cells): ni ^b (ni = no inhibition (cellular effect <20% @ 50 μM)) | PC-3M-luc cellular effect [2]: ni ^b (ni = no inhibition (cellular effect <20% @ 50 μM)) | MCF-7 cellular effect [4]: ni ^b (ni = no inhibition (cellular effect <20% @ 50 μM))
